Measurements reported in paper PMC2822059 (Nature chemical biology, 2010).

Experiments:
H976Y HDAC4 = settings: mutant versus wild type; cited from earlier work
[1] = test system: acetylated histones (AcH3K18), Jurkat cells; test: Immunoblot for acetylated histones in treated cells; type: cell-based, human; settings: 24 hours, time- and dose-dependent
[2] = test system: acetylated alpha-tubulin (AcTub), Jurkat cells; test: Immunoblot for acetylated alpha-tubulin in treated cells; type: cell-based, human; settings: 24 hours, time- and dose-dependent

Row | Compound | increased affinity for H976Y HDAC4 gain of function mutant (H976Y HDAC4) [fold] | hyperacetylation of Class I deacetylase targets (bulk histones) [1] | hyperacetylation of HDAC6 target α-tubulin [2]
1 | O=C(/C=C/c1ccc(CN(CCO)CCc2c[nH]c3ccccc23)cc1)NO [LAQ-824] | 100 | – | –
2 | O=C(/C=C/c1ccc(C(=O)N/N=C/c2ccc(O)c(O)c2O)cc1)NO [pandacostat] | – | confers hyperacetylation | confers hyperacetylation
